Laboratory results as given in US12492195B2, “Preparation method for and crystal form of 3-aryloxy-3-five-membered heteroaryl-propylamine compound” (Zhangzhou Pien Tze Huang Pharmaceutical Co., Ltd., priority 2020, dated 2025).

Assays:
Assay type in all cases: cell-based
[1] = molecular target: T1, TRPV4 (Homo sapiens, UniProt Q9HBA0); test: Manual patch clamp detection on TRPV4 channel; settings: 10.00 μM, HEK293, GSK1016790A-induced current
T1 construct: expressed in transfected cells
Experimental: (§1) TRPV4 cells were cultured in a cell culture dish with a diameter of 35 mm, placed in an incubator in 5% CO2 at 37° C., and passaged at a ratio of 1:5 every 48 hours. The formula of medium was 90% DMEM (Invitrogen), 10% fetal bovine serum (Gibco), 2 mM L-glutamine, 50 μg/mL Hygromycin B (Invitrogen) and 5 μg/mL Blasticidine HCl (Invitrogen). Before electrophysiological patch clamp experiment, the cell culture medium was replaced with medium containing 1 μg/mL doxycycline for at least 16 hours to induce the expression of TRPV4.
(§2) On the day of the experiment, the cell culture medium was aspirated, the cell were rinsed once with extracellular fluid, and then 0.25% Trypsin-EDTA (Invitrogen) solution was added, and digested at room temperature for 1-2 minutes. The digestion solution was aspirated, the cell were resuspended with extracellular fluid, and transferred to the experimental dish for electrophysiological recording for further experiment. […]
(§3) HEK293 cells stably expressing TRP channels, the corresponding agonist-induced channel current was recorded by whole-cell patch clamp technique at room temperature. […] Clamp voltages and data recording were controlled and recorded by a computer using pClamp 11 software with the sampling frequency of 10 kHz and the filtering frequency of 2 kHz. […] After the current was evoked for more than 40 s and no attenuation was determined, the dosing process started. […]

[2] = molecular target: T2, TRPV1 (Homo sapiens, UniProt Q8NER1); test: Manual patch clamp detection on TRPV1 channel; settings: HEK293, Capsaicin-induced current
T2 construct: expressed in transfected cells
Experimental: TRPV1 cells were cultured in a cell culture dish with a diameter of 35 mm, placed in a 37° C., 5% CO2 incubator, and passaged at a ratio of 1:5 every 48 hours. Medium formula: 90% DMEM (Invitrogen), 10% Fetal bovine serum (Gibco). 2 mM L-glutamine, 50 μg/mL Hygromycin B (Invitrogen) and 5 μg/mL Blasticidine HCl (Invitrogen). Before electrophysiological patch clamp experiments, the cell culture medium was replaced with medium containing 1 μg/mL Doxycycline for at least 16 hours to induce the expression of TRPV1.
as §2, §3

[3] = molecular target: T3, TRPM8 (Homo sapiens, UniProt Q7Z2W7); test: Manual patch clamp detection on TRPM8 channel
T3 construct: expressed in transfected cells
Experimental: as §1, with “TRPM8” for “TRPV4”, “TRPM8 expression.” for “the expression of TRPV4.”
On the day of the experiment, the cell culture medium was aspirated, the cell were rinsed once with extracellular fluid, and then 0.25% Trypsin-EDTA (Invitrogen) solution was added, and digested at room temperature for 1-2 minutes. The digestion solution was aspirated, the cell were resuspended with extracellular fluid, and transferred to the experimental dish for electrophysiological recording for further experiment.
Preparation of menthol: 100.00 mM of DMSO stock solution of menthol was added to the extracellular solution, diluting 1000-fold to 100.00 μM of menthol solution.
Preparation of AMTB: 5 μL of DMSO stock solution (20.00 mM) of AMTB was added to 4995 μL of menthol solution (100.00 uM), diluting 1000-fold to obtain the final concentration of 20.00 μM AMTB to be tested.
Preparation of IC-1: 20.00 mM or 10.00 mM of stock solution of IC-1 was taken and added to the agonist solution of the corresponding channel, diluting 1000 or 2000-fold to the final concentration of 10.00 μM of […] solution to be tested.
as §3

T3 sequence (Q7Z2W7 whole entry, species assumed): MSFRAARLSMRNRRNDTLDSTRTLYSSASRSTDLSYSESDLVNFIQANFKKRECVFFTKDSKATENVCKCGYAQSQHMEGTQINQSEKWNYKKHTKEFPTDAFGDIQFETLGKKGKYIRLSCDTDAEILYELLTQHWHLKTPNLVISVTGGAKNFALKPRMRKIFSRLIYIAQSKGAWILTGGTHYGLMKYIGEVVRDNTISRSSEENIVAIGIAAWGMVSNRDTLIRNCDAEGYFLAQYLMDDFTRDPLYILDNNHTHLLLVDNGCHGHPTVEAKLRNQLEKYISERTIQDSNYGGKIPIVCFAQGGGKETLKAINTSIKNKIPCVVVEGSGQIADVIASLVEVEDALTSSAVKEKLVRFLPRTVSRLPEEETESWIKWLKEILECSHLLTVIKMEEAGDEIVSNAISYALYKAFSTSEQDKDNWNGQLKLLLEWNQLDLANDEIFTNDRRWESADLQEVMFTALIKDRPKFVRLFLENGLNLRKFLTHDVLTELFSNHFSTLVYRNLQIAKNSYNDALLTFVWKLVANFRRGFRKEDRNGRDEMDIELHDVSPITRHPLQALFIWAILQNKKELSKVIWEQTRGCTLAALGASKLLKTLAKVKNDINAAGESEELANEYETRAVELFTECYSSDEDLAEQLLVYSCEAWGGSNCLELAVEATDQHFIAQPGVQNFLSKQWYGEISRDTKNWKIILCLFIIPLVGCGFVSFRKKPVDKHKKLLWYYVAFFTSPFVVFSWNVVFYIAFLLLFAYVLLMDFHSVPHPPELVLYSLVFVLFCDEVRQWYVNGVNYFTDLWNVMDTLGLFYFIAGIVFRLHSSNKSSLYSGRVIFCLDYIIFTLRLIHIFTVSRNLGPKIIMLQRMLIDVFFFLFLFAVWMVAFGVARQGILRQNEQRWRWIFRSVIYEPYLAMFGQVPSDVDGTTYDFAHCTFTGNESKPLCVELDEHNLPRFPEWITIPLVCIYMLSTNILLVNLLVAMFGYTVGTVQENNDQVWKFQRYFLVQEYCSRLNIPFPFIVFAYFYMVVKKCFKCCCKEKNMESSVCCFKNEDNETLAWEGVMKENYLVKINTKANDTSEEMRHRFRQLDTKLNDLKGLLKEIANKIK
T1 sequence (Q9HBA0 whole entry, species assumed): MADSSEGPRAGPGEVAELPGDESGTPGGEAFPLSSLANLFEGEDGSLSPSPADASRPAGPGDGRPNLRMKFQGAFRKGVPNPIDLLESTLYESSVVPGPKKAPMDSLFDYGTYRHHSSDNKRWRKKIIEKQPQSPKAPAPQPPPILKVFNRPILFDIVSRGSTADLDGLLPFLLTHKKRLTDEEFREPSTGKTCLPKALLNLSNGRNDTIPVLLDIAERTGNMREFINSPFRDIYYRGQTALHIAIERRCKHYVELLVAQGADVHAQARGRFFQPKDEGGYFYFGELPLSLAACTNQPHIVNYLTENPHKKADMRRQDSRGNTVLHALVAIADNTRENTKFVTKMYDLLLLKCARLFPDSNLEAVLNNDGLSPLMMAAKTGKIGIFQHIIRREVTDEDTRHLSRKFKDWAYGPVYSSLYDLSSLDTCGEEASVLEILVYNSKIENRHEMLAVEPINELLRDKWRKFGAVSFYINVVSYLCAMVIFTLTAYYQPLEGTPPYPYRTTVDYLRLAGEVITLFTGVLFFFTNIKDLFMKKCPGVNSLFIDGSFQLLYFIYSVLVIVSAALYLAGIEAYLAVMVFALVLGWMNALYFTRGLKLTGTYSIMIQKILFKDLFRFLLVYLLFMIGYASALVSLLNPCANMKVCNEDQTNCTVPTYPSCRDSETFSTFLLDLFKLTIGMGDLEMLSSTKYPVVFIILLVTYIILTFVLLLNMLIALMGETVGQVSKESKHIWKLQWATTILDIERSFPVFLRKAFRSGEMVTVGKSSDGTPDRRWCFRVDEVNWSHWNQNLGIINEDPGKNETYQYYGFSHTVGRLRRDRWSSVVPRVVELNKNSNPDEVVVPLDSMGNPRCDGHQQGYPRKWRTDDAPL
T2 sequence (Q8NER1 whole entry, species assumed): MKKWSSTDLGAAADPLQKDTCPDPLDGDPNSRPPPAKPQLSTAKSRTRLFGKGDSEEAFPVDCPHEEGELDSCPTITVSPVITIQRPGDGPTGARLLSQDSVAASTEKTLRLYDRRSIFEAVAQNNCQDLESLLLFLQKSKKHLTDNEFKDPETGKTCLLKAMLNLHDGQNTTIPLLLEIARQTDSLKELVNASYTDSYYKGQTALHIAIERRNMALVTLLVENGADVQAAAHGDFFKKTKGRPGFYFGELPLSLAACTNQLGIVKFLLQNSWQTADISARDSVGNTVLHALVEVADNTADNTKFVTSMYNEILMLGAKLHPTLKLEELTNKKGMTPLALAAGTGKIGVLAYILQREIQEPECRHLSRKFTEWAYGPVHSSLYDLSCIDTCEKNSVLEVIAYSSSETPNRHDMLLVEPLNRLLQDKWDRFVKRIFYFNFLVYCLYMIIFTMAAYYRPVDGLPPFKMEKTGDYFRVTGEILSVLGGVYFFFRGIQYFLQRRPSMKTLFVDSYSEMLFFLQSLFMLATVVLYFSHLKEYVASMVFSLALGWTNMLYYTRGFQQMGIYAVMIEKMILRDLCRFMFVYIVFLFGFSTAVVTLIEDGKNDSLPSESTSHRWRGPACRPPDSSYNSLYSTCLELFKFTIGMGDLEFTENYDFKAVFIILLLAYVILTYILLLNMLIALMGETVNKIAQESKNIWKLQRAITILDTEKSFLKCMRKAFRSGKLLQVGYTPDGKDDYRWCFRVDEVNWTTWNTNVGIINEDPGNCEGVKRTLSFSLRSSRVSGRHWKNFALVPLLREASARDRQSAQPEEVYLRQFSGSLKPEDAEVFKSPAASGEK

inhibition at 10 µM [1]: 4.68%
inhibition at 10 µM [2]: 22.5%
inhibition at 10 µM ([3]; 10.00 μM, HEK293, menthol-induced current): 41.1%
IC50 ([3]; read-out: IC50 of the compound to TRPM8): > 10 µM
Structure (SMILES): CNCC[C@H](Oc1cccc2ccoc12)c1cccs1 [IC-1, (S)-3-(Benzofuran-7-yloxy)-N-methyl-3-(thiophen-2-yl)propan-1-amine]
